Measured values: paper PMC4498294, “Tetrahydroisoquinolines affect the whole-cell phenotype of Mycobacterium tuberculosis by inhibiting the ATP-dependent MurE ligase” (Journal of Antimicrobial Chemotherapy, 2015)
In brackets after ≈: the same amount, converted by molar mass. Read-outs that look alike come from different tables or passages of the source. Marks after values point to notes of the source that are not given here.

Columns and labels:
M. tuberculosis H37Rv = experiment: SPOTi growth inhibition assay, M. tuberculosis H37Rv; type: cell-based; details: for MIC: Mycobacterium tuberculosis, H37RV
[1] = system: murine macrophage cell line RAW264.7; set-up: method as in Gupta and Bhakta.[27]; details: ref Gupta and Bhakta.[27]; cited from earlier work
[2] = molecular target: MurE (Rv2158c) protein of M. tuberculosis H37Rv (Mycobacterium tuberculosis, UniProt P9WJL3); experiment: Mtb-MurE HPLC inhibition assay; type: biochemical; details: for IC50: HPLC assay, 37°C 30 min
M. bovis BCG Pasteur = experiment: microbe, parasite or virus in culture; type: cell-based; details: for MIC: Mycobacterium tuberculosis variant bovis BCG, BCG; for MIC M. bovis BCG: SPOTi, 2 weeks at 37°C
P. putida = experiment: SPOTi assay, P. putida; type: cell-based, Pseudomonas putida; details: LB, 37°C overnight; for MIC: Pseudomonas putida
[3] = system: murine macrophage cell line RAW264.7; experiment: Eukaryotic cell toxicity assay, RAW264.7; type: cell-based; details: Mus musculus, read-out: GIC50 RAW264.7
E. coli K12 = experiment: SPOTi assay, E. coli; type: cell-based, Escherichia coli; details: 37°C overnight; for MIC: Escherichia coli, K12, LB
M. aurum = experiment: SPOTi assay, M. aurum; type: cell-based, Mycobacterium aurum; details: for MIC: Mycolicibacterium aurum
R. equi RHA1 = experiment: SPOTi assay, R. equi RHA1; type: cell-based, Rhodococcus equi; details: 30°C 48 h; for MIC: Rhodococcus (subgen. Prescottella) equi, RHA1, LB
M. smegmatis mc^2155 = experiment: SPOTi assay, M. smegmatis; type: cell-based, Mycobacterium smegmatis; details: for MIC: Mycolicibacterium smegmatis, MC^2155
M. bovis BCG = type: cell-based; details: M. bovis BCG treated at 4 × MIC for 48 h (D-cycloserine 100 mg/L, 39 160 mg/L); 100 cells
CYP 2C9 = molecular target: T1, CYP 2C9 (Homo sapiens, UniProt P11712); experiment: CYP450 inhibition assay, CYP 2C9; type: in vitro ADME; set-up: dose or concentration left out as unconfirmed; details: CYP baculosomes with recombinant human CYP2C9, probe fluorogenic substrate (not named); human recombinant enzymes; read-out: Mean % inhibtion CYP 2C9
T1 construct: purchased; host or cells: baculosomes (insect-cell microsomes; own knowledge)
Method: (§1) The compounds originally dissolved in DMSO were added to PBS to give a resulting concentration of […]. CYP baculosomes containing cDNA for a single human P450 isozyme, the fluorogenic substrate and the NADPH were added to the test solution. The reaction was incubated at 37°C for at least 1 h. Fluorogenic substrates metabolized by CYP enzymes result in highly fluorescent products in aqueous solution. The inhibition of CYP prevents this metabolism, which corresponds to a decrease in the fluorescence signal. The fluorescence was measured on a plate reader.

CYP 2D6 = molecular target: T2, CYP 2D6 (Homo sapiens, UniProt P10635); experiment: CYP450 inhibition assay, CYP 2D6; type: in vitro ADME; set-up: dose or concentration left out as unconfirmed; details: CYP baculosomes with recombinant human CYP2D6, probe fluorogenic substrate (not named); human recombinant enzymes; read-out: Mean % inhibtion CYP 2D6
T2 construct: purchased; host or cells: baculosomes (insect-cell microsomes; own knowledge)
Method: as §1

CYP 1A2 = molecular target: T3, CYP 1A2 (Homo sapiens, UniProt P05177); experiment: CYP450 inhibition assay, CYP 1A2; type: in vitro ADME; set-up: dose or concentration left out as unconfirmed; details: CYP baculosomes with recombinant human CYP1A2, probe fluorogenic substrate (not named); human recombinant enzymes; read-out: Mean % inhibtion CYP 1A2
T3 construct: purchased; host or cells: baculosomes (insect-cell microsomes; own knowledge)
T3 sequence (P05177 1-516): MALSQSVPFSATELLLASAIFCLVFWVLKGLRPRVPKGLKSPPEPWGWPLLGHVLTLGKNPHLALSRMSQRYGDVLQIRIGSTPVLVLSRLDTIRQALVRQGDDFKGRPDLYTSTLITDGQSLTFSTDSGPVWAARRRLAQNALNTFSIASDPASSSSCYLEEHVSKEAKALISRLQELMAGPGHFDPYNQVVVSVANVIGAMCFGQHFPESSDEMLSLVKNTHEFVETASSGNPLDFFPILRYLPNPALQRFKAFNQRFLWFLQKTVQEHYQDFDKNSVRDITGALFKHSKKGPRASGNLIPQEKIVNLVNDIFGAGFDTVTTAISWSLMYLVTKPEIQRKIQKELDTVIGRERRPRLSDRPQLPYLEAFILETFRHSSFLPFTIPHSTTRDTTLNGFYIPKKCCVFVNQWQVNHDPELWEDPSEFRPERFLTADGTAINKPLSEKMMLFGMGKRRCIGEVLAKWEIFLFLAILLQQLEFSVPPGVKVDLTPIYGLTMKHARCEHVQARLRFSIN
Method: as §1

CYP 2C19 = molecular target: T4, CYP 2C19 (Homo sapiens, UniProt P33261); experiment: CYP450 inhibition assay, CYP 2C19; type: in vitro ADME; set-up: dose or concentration left out as unconfirmed; details: CYP baculosomes with recombinant human CYP2C19, probe fluorogenic substrate (not named); human recombinant enzymes; read-out: Mean % inhibtion CYP 2C19
T4 construct: purchased; host or cells: baculosomes (insect-cell microsomes; own knowledge)
Method: as §1

CYP 3A4 = molecular target: T5, CYP 3A4 (Homo sapiens, UniProt P08684); experiment: CYP450 inhibition assay, CYP 3A4; type: in vitro ADME; set-up: dose or concentration left out as unconfirmed; details: CYP baculosomes with recombinant human CYP3A4, probe fluorogenic substrate (not named); human recombinant enzymes; read-out: Mean % inhibtion CYP 3A4
T5 construct: purchased; host or cells: baculosomes (insect-cell microsomes; own knowledge)
Method: as §1

[4] = 336 h, SPOTi, 2 weeks at 37°C, read-out: MIC M. tuberculosis H37Rv
[5] = SPOTi, value in square brackets, read-out: MIC M. tuberculosis H37Rv
[6] = 336 h, read-out: MIC M. bovis BCG, SPOTi, 2 weeks at 37°C
[7] = read-out: MIC M. bovis BCG, SPOTi, value in square brackets
[8] = RAW264.7, value in square brackets
[9] = murine macrophage cell line RAW264.7
[10] = 336 h, read-out: MIC M. tuberculosis H37Rv, SPOTi, 2 weeks at 37°C

Chain of MurE (Rv2158c) protein of M. tuberculosis H37Rv (P9WJL3 whole entry, looked up): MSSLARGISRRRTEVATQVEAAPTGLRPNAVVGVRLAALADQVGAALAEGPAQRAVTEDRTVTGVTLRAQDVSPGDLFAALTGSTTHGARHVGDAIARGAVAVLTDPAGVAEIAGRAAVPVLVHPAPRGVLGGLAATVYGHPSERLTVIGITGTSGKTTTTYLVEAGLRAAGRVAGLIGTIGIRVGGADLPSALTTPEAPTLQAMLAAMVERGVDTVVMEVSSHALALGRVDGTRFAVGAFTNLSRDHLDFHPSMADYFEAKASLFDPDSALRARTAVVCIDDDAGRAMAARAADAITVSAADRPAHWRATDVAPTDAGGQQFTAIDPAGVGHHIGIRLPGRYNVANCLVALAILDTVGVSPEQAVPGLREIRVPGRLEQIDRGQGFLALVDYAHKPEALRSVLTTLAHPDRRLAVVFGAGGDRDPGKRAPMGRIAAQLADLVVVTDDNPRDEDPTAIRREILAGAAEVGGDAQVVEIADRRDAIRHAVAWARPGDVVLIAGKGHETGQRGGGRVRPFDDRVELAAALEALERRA
T2 sequence (P10635 whole entry): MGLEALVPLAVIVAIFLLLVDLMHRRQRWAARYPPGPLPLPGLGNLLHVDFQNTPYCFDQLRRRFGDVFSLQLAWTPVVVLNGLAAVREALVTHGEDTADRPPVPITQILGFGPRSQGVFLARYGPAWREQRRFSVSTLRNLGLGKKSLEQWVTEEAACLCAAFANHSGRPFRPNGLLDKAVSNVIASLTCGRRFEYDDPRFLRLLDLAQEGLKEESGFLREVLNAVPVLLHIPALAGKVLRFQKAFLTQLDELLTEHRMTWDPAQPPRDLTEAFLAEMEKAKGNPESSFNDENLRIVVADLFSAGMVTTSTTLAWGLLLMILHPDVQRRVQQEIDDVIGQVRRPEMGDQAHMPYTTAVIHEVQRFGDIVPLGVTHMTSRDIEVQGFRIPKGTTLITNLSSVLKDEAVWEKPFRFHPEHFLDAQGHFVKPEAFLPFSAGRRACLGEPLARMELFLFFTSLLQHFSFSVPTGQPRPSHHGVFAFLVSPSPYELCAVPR
T1 sequence (P11712 whole entry): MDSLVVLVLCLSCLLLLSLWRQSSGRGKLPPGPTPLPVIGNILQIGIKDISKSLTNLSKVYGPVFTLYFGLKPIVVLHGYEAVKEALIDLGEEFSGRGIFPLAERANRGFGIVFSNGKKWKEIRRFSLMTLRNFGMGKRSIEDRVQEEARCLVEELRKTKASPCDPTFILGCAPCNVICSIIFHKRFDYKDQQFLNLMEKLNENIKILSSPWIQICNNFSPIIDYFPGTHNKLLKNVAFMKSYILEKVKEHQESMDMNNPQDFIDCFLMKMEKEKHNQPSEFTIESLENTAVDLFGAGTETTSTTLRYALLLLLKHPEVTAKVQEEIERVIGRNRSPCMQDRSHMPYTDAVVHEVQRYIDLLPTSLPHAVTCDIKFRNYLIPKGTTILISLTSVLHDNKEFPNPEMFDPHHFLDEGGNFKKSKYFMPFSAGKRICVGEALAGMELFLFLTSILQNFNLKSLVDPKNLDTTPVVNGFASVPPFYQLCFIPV
T5 sequence (P08684 whole entry): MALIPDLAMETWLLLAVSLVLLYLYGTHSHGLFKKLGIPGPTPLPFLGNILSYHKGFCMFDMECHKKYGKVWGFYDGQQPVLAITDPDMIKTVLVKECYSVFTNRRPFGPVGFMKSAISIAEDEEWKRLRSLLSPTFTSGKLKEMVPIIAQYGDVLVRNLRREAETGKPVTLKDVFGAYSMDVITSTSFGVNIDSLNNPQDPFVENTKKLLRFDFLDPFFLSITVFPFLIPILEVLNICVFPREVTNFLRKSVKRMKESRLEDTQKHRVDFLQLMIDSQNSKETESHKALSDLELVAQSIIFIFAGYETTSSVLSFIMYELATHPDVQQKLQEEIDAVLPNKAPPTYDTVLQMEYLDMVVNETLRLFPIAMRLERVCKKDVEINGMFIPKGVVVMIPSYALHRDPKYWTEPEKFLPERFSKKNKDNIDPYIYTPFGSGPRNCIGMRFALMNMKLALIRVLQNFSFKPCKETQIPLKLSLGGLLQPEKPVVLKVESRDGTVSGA
T4 sequence (P33261 whole entry): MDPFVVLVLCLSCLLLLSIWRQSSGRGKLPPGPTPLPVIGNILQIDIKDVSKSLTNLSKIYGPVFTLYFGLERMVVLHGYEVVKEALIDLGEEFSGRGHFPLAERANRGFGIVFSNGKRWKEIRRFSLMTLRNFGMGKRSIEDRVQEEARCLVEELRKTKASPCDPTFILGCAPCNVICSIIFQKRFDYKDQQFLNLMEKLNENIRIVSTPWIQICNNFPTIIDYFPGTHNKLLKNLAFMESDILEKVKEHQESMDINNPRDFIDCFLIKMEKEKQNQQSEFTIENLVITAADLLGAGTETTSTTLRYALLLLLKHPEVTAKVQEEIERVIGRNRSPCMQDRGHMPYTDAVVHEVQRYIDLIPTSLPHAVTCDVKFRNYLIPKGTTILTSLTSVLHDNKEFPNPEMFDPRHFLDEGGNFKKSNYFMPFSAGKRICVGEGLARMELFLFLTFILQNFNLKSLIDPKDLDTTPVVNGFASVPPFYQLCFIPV

SMILES | MIC (M. tuberculosis H37Rv; [4]) | MIC (M. tuberculosis H37Rv; [5]) | IC50 [2] | MIC (M. bovis BCG Pasteur; [6]) | MIC (M. bovis BCG Pasteur; [7]) | IC50 [3, 8] | IC50 [3, 9] | MIC (M. aurum) | MIC (M. smegmatis mc^2155) | other results
NNC(=O)c1ccncc1 [Isoniazid, reference compound] | 0.1 mg/L | 0.73 µM | > 1000 µM | 0.1 mg/L | 0.73 µM |  |  |  |  | GIC50 RAW264.7 [1]: 3000^a mg/L; Mtb-MurE inhibitory effect ([2]; negative control, any of the concentrations examined): no inhibitory effect
Oc1cc2c(cc1O)C(Cc1ccc3c(c1)OCO3)NCC2 (centres unmarked) [Compound 20] |  |  | 237 µM | > 60 mg/L | 334 µM | 602 µM | 190 mg/L | > 100 mg/L | > 100 mg/L | MIC (P. putida): > 100 mg/L; MIC (E. coli K12): > 100 mg/L; MIC M. aurum (M. aurum): >100 mg/L; MIC (R. equi RHA1): > 100 mg/L; MIC M. bovis BCG (M. bovis BCG Pasteur): 100 mg/L (≈ 334 µM); MIC M. smegmatis mc^2155 (M. smegmatis mc^2155): >100 mg/L
N[C@@H]1CON=C1O [D-cycloserine, reference compound] |  |  |  | 25 mg/L |  |  |  |  |  | cell length (M. bovis BCG): 4.2 ± 1.0 μm
COc1ccc(Cl)c2c1C(Cc1cc3c(cc1Br)OCO3)NCC2 (centres unmarked) [Compound 39] | 40 mg/L | 97 µM |  | 40 mg/L | 97 µM | 178 µM | 73 mg/L |  |  | cell length (M. bovis BCG): 4.7 ± 1.4 μm
COc1ccc(I)c2c1C(Cc1ccc3c(c1)OCO3)NCC2 (centres unmarked) [Compound 38] | 30 mg/L | 71 µM | < 111 µM | 50 mg/L | 118 µM | 66 µM | 28 mg/L |  |  | 
COc1ccc(Br)c2c1C(Cc1ccc3c(c1)OCO3)NCC2 (centres unmarked) [Compound 37] |  | 106 µM | 165 µM | 30 mg/L | 53 µM | 80 µM | 30 mg/L |  |  | MIC (M. tuberculosis H37Rv; [10]): 40 mg/L; MIC M. bovis BCG (M. bovis BCG Pasteur): 20 mg/L (≈ 53.2 µM)
COc1ccc(Cl)c2c1C(Cc1ccc3c(c1)OCO3)NCC2 (centres unmarked) [Compound 36] | 60 mg/L | 181 µM |  | 40 mg/L | 121 µM | 124 µM | 41 mg/L | 60 mg/L (≈ 181 µM) | 60 mg/L (≈ 181 µM) | MIC (P. putida): > 100 mg/L; MIC (E. coli K12): > 100 mg/L; MIC (R. equi RHA1): > 100 mg/L
COc1cccc2c1C(Cc1ccc3c(c1)OCO3)NCC2 (centres unmarked) [Compound 40] | > 100 mg/L | > 336 µM | 300 µM | > 50 mg/L | > 168 µM | 740 µM | 220 mg/L |  |  | 
NC[C@H]1O[C@H](O[C@H]2[C@H](O)[C@@H](O[C@H]3O[C@H](CO)[C@@H](O)[C@H](N)[C@H]3O)[C@H](N)C[C@@H]2N)[C@H](O)[C@@H](O)[C@@H]1O [Kanamycin, reference compound] |  |  |  |  |  |  |  |  |  | MIC P. putida (P. putida): 10 mg/L (≈ 20.6 µM); MIC E. coli K12 (E. coli K12; LB): 1 mg/L (≈ 2.06 µM); MIC R. equi RHA1 (R. equi RHA1; LB): 1 mg/L (≈ 2.06 µM)
CCCCCCCCCC1NCCc2cc(O)c(O)cc21 (centres unmarked) [Compound 24] |  | 206 µM | 186 µM | > 60 mg/L | 275 µM | 5.5 µM | 1.6 mg/L | 100 mg/L (≈ 343 µM) | 100 mg/L (≈ 343 µM) | MIC (P. putida): > 100 mg/L; MIC (E. coli K12): > 100 mg/L; MIC (M. tuberculosis H37Rv; [10]): 80 mg/L; MIC M. tuberculosis H37Rv (M. tuberculosis H37Rv; SPOTi, 2 weeks at 37°C): 60 mg/L (≈ 206 µM); MIC (R. equi RHA1): > 100 mg/L; MIC M. bovis BCG (M. bovis BCG Pasteur): 80 mg/L (≈ 275 µM)
O=c1cc(-c2ccccc2)oc2c1ccc1ccccc12 [α-naphthoflavone, reference compound] |  |  |  |  |  |  |  |  |  | inhibition (CYP 2C9): 101%; inhibition (CYP 2D6): 99.1%; inhibition (CYP 1A2): 100%; inhibition (CYP 2C19): 100%; inhibition (CYP 3A4): 101%
COc1cc2c(c(O)c1OC)C[C@H]1c3c(cc4c(c3-2)OCO4)CCN1C [(S)-Leucoxine (1), (S)-Leucoxine] | 30 mg/L | 84 µM | 820 µM | 25 mg/L | 70 µM | 352 µM | 125 mg/L |  |  | 
CO[C@H]1/C=C/O[C@@]2(C)Oc3c(C)c(O)c4c(O)c(c(/C=N/N5CCN(C)CC5)c(O)c4c3C2=O)NC(=O)/C(C)=C\C=C\[C@H](C)[C@H](O)[C@@H](C)[C@@H](O)[C@@H](C)[C@H](OC(C)=O)[C@@H]1C [Rifampicin, reference compound] | 0.05 mg/L | 0.061 µM |  | 0.05 mg/L | 0.061 µM |  |  | 0.1 mg/L (≈ 0.122 µM) | 0.1 mg/L (≈ 0.122 µM) | GIC50 RAW264.7 [1]: 700^a mg/L
